Results on 28 compounds are retold here after ChEMBL document CHEMBL1201862, “PubChem BioAssay data set” (2004).

Calls of active or inactive are those of the source. Bounds are passed on as bounds.

Assay [1] in a line: Trypanosoma cruzi growth suppression in host cells – NIH3T3 host cells, beta-gal luminescence, confirmation (AID 2044).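 Also: intracellular parasites grown in NIH/3T3 mouse fibroblasts as host cells; luminescent beta-galactosidase reporter signal from transgenic T. cruzi replicating inside host cells; inhibitors lower the luminescence signal.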 In kind it is functional, cell-based.
The nature of assay [2]: NIH3T3 cell viability loss – ATP luminescence, mouse fibroblasts, counter-screen, dose response (AID 2010).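 Also: cells exposed to compound for about 90 hours before reading.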 In kind it is functional, cell-based. (Counterscreens check selectivity or assay interference.)
The target of the next assay is T1, Cytochrome P450 1A2 (Homo sapiens, UniProt P05177).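 Also: PubChem cytochrome P450 panel assay, CYP1A2 panel member.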
T1 sequence (P05177 whole entry): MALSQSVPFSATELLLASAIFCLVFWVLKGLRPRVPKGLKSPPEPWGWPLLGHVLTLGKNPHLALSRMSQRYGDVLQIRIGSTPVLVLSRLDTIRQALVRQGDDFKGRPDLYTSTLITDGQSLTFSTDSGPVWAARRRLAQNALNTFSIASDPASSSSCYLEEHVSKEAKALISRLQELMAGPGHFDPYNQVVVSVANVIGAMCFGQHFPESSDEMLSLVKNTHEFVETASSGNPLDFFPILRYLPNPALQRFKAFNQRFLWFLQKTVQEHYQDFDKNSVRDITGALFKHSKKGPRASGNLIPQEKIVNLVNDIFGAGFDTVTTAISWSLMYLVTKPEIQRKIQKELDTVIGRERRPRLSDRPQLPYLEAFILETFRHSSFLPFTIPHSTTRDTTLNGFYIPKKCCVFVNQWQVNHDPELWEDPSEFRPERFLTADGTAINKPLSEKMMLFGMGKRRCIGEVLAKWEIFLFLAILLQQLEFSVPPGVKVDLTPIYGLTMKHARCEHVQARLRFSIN

Assay [3] addresses T2, Corticotropin-releasing factor receptor 2/Corticotropin-releasing factor-binding protein (Homo sapiens, UniProt P24387+Q13324).
T2 sequence (Q13324 whole entry): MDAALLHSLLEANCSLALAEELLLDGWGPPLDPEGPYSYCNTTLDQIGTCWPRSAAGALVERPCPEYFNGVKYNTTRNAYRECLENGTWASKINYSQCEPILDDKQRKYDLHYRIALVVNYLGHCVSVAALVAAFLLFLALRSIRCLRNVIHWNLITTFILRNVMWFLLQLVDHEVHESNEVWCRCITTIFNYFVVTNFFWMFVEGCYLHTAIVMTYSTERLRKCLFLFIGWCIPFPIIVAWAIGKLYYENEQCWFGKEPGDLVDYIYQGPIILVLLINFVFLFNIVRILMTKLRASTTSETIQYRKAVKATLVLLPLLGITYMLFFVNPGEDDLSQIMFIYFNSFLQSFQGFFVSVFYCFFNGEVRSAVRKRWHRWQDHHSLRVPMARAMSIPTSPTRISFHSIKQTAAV
T2 sequence (P24387 whole entry): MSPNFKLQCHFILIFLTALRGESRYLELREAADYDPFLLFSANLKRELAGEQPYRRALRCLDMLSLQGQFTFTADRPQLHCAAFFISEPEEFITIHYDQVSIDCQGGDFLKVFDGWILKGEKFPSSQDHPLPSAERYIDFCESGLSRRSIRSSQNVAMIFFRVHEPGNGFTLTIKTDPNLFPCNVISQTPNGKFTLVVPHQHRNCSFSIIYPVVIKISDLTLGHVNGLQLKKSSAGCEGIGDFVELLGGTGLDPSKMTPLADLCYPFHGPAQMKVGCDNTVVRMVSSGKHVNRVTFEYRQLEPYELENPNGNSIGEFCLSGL
The experiment in a line: activators of CRF receptor 2 with binding protein – uHTS hits, confirmation (AID 602473). It is filed as functional. The conditions noted are these: read-out: EC50_Mean.

The target of a further assay is Cytochrome P450 2C19 (Homo sapiens, UniProt P33261). The experiment in a line: Cytochrome panel assay with activity outcomes. Panel member name: p450-cyp2c19 Compounds with AC50 equal or less than 10 uM are considered active. It is filed as functional. As to conditions: read-out: AC50.
Chain of Cytochrome P450 2C19 (P33261 whole entry): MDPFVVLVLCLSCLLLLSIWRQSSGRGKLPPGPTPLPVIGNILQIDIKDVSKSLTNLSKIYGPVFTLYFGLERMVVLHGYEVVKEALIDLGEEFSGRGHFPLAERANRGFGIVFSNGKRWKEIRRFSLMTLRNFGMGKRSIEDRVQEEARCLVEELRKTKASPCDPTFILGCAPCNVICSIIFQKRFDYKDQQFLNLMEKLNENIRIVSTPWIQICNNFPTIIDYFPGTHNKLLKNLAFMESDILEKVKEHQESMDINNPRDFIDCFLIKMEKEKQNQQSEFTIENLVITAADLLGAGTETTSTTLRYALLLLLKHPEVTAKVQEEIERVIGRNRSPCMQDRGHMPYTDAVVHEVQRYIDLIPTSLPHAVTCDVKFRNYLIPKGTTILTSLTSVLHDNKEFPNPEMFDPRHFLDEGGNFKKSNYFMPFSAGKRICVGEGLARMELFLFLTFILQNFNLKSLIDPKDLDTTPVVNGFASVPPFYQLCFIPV

As to `Cc1ccc(NCc2ccccc2)cc1` [N-BENZYL-4-METHYLANILINE], the EC50 is 5.25 µM (active) in assay [1] and > 60 µM (not active) in assay [2].

The AC50 is the concentration at which the activity in the assay is half-maximal. With `NC(=O)N/N=C\c1ccc([N+](=O)[O-])o1`, the AC50 at Cytochrome P450 1A2 was 12.6 µM (inconclusive).

Regarding `O=C(c1ccc(Cl)cc1)C1CCCN(Cc2cccn2-c2cccnc2)C1` (centres undefined), the EC50 in assay [1] is 2.58 µM (active); in assay [2] it was > 60 µM (not active).

Regarding `COc1ccc(C2=CC(c3cccc(OC)c3)n3nnnc3N2)cc1` (centres undefined), the EC50 in assay [3] was > 53 µM (inactive).

Consider `Cc1c(C)n(CCCN(C)C)c2ncnc(NCc3ccccc3)c12`, for which the EC50 was 0.911 µM (active) in assay [1] and > 60 µM (not active) in assay [2].

`Cc1cc(C)c(C(=O)Cn2cnc3cc([N+](=O)[O-])ccc3c2=O)cc1C`: the EC50 in assay [1] is 1.61 µM (active); in assay [2], > 60 µM (not active).

For `O=C(N/N=C/c1ccc([N+](=O)[O-])cc1)c1ccc(COc2ccccc2-c2ccccc2)cc1`, the EC50 in assay [1] is 1.55 µM (active); in assay [2] it was > 30 µM (not active).

As to `COc1ccc(N(CC(=O)NCCC2=CCCCC2)S(=O)(=O)c2ccc(C)cc2)cc1`, the EC50 is 2.31 µM (active) in assay [1] and > 30 µM (not active) in assay [2].

Take `Cc1nnc(O)n1-c1cccc(C(F)(F)F)c1`: at Cytochrome P450 1A2, the AC50 is 5.62 µM (inconclusive).

For `O=C(Nc1ncc(S(=O)(=O)c2ccc([N+](=O)[O-])cc2)s1)c1ccccc1F`, the EC50 in assay [3] is 4.81 µM (active).

Consider `CN1CCN(NC(=O)Nc2cccc(Cl)c2Cl)CC1`, for which the EC50 in assay [1] was 0.184 µM (active); in assay [2] it was > 60 µM (not active).

As to `O=[N+]([O-])c1ccc(-[n+]2c(-c3ccccc3)cc(-c3ccccc3)cc2-c2ccccc2)cc1.[O-][Cl+3]([O-])([O-])[O-]`, the EC50 in assay [1] is 0.264 µM (active); in assay [2] it was > 60 µM (not active); in assay [3], 5.02 µM (active).

Consider `COc1ccc(C(=O)NCC(=O)N2CCN(C(=O)c3ccco3)CC2)cc1`, for which the EC50 in assay [3] is > 53 µM (inactive).

Regarding `Cc1ccc(-c2ccc(CCC(=O)O)o2)cc1`, at Cytochrome P450 1A2, the AC50 was 25.1 µM (inconclusive).

As for `O=C(c1ccc2nc3ccc(Cl)cc3c(=O)n2c1)N1CCOCC1`, the AC50 at Cytochrome P450 1A2 was 14.1 µM (inconclusive).

With `Cc1ccc(NC(=O)C2CCN(c3cnccn3)CC2)cc1`, the figures for the EC50 in assay [1] and in assay [2] were 0.9 µM (active) and > 60 µM (not active), respectively.

As to `CCOC(=O)CSc1nc(N2CCOCC2)c2c(c1C#N)CC(C)(C)N(C)C2`, the EC50 in assay [3] is > 53 µM (inactive).

For `Cn1cc(-c2nc3cnc(Oc4ccccc4)nc3n(C)c2=O)c2ccccc21`, the AC50 on Cytochrome P450 1A2 was 12.6 µM (inconclusive).

For the compound `COc1ccc(Cn2nnnc2C(c2ccccn2)N2CCN(c3cc(Cl)ccc3C)CC2)cc1` (centres undefined), the EC50 in assay [1] was 2.04 µM (active); in assay [2], > 60 µM (not active).

With `CCOc1ccc2nc(O)c(CN(CCc3ccccc3)C(=O)N3CCOCC3)cc2c1`, the AC50 on Cytochrome P450 1A2 was 17.8 µM (inconclusive).

Turning to `CCOc1ccc(NC(=O)c2ccc(Br)o2)c([N+](=O)[O-])c1`, on Cytochrome P450 1A2, the AC50 was 3.55 µM (inconclusive).

Take `Cc1nc2ncnn2c(C)c1CCC(=O)NC(C)c1ccc2c(c1)OCCO2` (centres undefined): the AC50 at Cytochrome P450 2C19 is 8.91 µM (inconclusive).

With `Cc1cc(NS(=O)(=O)c2ccc(NC(=O)c3cccc(OC(F)F)c3)cc2)nc(C)n1`, in assay [3], the EC50 was > 53 µM (inactive).

On to `CCNc1ncc2nc(-c3cccs3)c(=O)n(-c3ccccc3)c2n1`, for which, on Cytochrome P450 1A2, the AC50 was 1.58 µM (inconclusive).

Regarding `Cc1cccc(C)c1N1CCN(S(=O)(=O)N2CCCCC2)CC1`, the EC50 in assay [3] is 5.58 µM (active).

Consider `Cc1c(NC2=N/C(=N\C(=O)c3cccs3)c3ccccc32)c(=O)n(-c2ccccc2)n1C`, for which the EC50 in assay [3] is 5.98 µM (active).

Consider `CCOCCCN1CC(C(=O)NCCc2ccc(C)cc2)CC1=O` (centres undefined), for which the AC50 at Cytochrome P450 2C19 is 25.1 µM (inconclusive).

As to `Cc1cccc2c1OCC/C2=N\NC(=O)COc1ccccc1Cl`, on Cytochrome P450 2C19, the AC50 is 0.708 µM (inconclusive).
